According to patent US8216580B2, “Sulfatases and methods of use thereof” (The Regents of the University of California, priority 2000, dated 2012):

Test: Endo-glucosamine-6-sulfatase assay against intact heparin (heparinase digestion, disaccharide HPLC)
Format: biochemical, porcine
Conditions: for Endo-glucosamine-6-sulfatase activity: 10 μg heparin, pH 7.5, 37° C., 8 hr, means±S.D., three reactions
Procedure: The procedures of Yoshida et al ((1989) Anal. Biochem. 177:327-332) were adapted for these assays. CM from transfected CHO cells (wild-type Sulfs, vector control or the double cysteine mutants) was prepared as described above. The standard reaction mixture contained 5 μmol of Tris-HCl, pH 7.5, 1 μmol of MgCl2, 10 μg of porcine intestinal heparin (Sigma, St. Louis, Mo.) and 20 μl of the 100-fold concentrated CM in a total volume of 100 μl. After incubation at 37° C. for 8 hr, the reaction was stopped by heating at 100° C. for 2 min. A mixture of 1 milliunit of Heparinase I (EC 4.2.2.7, Sigma), 0.25 milliunits of Heparinase II (Sigma) and 0.1 milliunits of Heparinase III (EC 4.2.2.8, Sigma) in 1.5 μl of 50 mM Tris-HCl, pH 7.5, was added to the reaction mixture and incubated at 37° C. for 3 hr. The digestion was stopped by heating at 100° C. for 2 min, and the mixture was filtered by centrifugation in an Ultrafree-MC filter (Millipore).
The disaccharides of the digested heparin were then analyzed by HPLC on a Partisil-10 SAX column (Whatman, Fairfield, N.J.) run at 41° C. Disaccharides were eluted from the column by increasing the ionic strength as follows: time 0-5 min, 12 mM KH2PO4; time 5-40 minutes, gradient from 12 mM to 600 mM; time 40-45 min, 600 mM. Absorbance at 232 nm was monitored and components were identified by comparison with authentic unsaturated disaccharide markers from Sigma, i.e. ΔDiHS-0S, ΔDiHS-6S, ΔDiHS-NS, ΔDiHS-(N,6)diS, ΔDiHS-(N,2)diS and ΔDiHS-(N,6,2)triS. The endo-glucosanine-6-sulfatase activities of human Sulf-1 and Sulf-2 against heparin proceeded linearly up to 10 hr under these conditions. In other assays, 10 μg of chondroitin 6-sulfate was employed as a substrate in the standard assay. After incubation with CM, 15 milliunits of Chondroitinase ABC (EC 4.2.2.4, Sigma) was used to fragment the chondroitin sulfate. The standards used were as follows: ΔDi-0S, ΔDi-6S, ΔDi-4S, ΔDi-diSD(2,6) and ΔDi-diSE(4,6). All were from Oxford GlycoSystems Inc.
Intact heparin (10 μg) was treated with conditioned medium from Sulf transfected CHO cells. To analyze activity on specific sulfation modifications, we digested the treated heparin with a mixture of bacterial heparinases and analyzed the disaccharide products by HPLC using standards (Yoshida, supra). Both HSulf-1 CM and Hsulf-2 CM produced an ≈80% reduction in the amount of trisulfated units ([…]) corresponding to IdoA2S-GlcNS6S and a parallel increase in that of disulfated units (ΔDiHS-(N,2)diS) corresponding to IdoA2S-GlcNS (FIG. 16A-C). There were no effects on the disulfated units ΔDiHS-(N,6)diS, monosulfated or non-sulfated units. Specific activities were calculated based on the volume of CM (Table 3). The endosulfatase activities of Sulf-1 and Sulf-2 CM were increased 9-fold and 10-fold respectively relative to CM from mock transfected cells (Table 3). […] Further selectivity of the endosulfatase activity was indicated when we employed chondroitin 6-sulfate as a substrate. […] Thus the Sulfs are active against intact heparin.
Endo-glucosamine-6-sulfatase activity was measured against intact heparin as described in above using CM derived from CHO cells transfected with the indicated vectors. HSulf-1 ΔCC and HSulf-2 ΔCC denote the CC87, 88AA and CC88, 89AA mutants, respectively. Endosulfatase activity was defined by calculating the moles of unsaturated trisulfated disaccharides from which the sulfate group on C-6 position was liberated in the standard assay (FIGS. 16A-F) by the Sulfs as compared to levels in untreated control samples. Values shown are means±S.D. based on three independent reactions.

[1] = CM from transfected CHO cells, intact heparin 10 μg

Substance | Endo-glucosamine-6-sulfatase activity (CM from transfected CHO cells) | effects on the disulfated units ΔDiHS-(N,6)diS, monosulfated or non-sulfated units [1] | reduction in the amount of trisulfated units ([…]) corresponding to IdoA2S-GlcNS6S [1] | endosulfatase activity increase relative to CM from mock transfected cells (based on Table 3) [fold] | removal of sulfate from the 6-position of glucosamine within the tri-sulfated units (intact heparin, neutral pH) [%]
HSulf-2 ΔCC: catalytically inactive HSulf-2, cysteines 88 and 89 mutated to alanines (CC88, 89AA) | 5.6 ± 0.6 pmol/hr/ml of medium |  |  |  | 
HSulf-2: Human SULF2, an 870 amino acid sulfatase protein, SEQ ID NO:06; expressed with C-terminal Myc-His tag | 96.6 ± 0.5 pmol/hr/ml of medium | no effects | ≈ 80% | 10 | 80
